± gives the expanded uncertainty stated by the source.
Assay: xn = mol fraction of the nth substance listed
Conditions: 92.3 kPa, Liquid; for viscosity: Concentric cylinders viscometry; for speed of sound: Frequency=3 MHz, Single path-length method; for mass density: Vibrating tube method

OCC(O)CO [glycerol] + O
Conditions | mass density, 303.15 K [kg/m3] | mass density, 308.15 K [kg/m3] | speed of sound, 303.15 K [m/s] | speed of sound, 308.15 K [m/s] | viscosity, 303.15 K [mPa·s] | viscosity, 308.15 K [mPa·s]
x1 = 0.011 | 1008.02 ± 3.2 | 1006.3 ± 3.2 | 1529.5 ± 1.8 | 1538.8 ± 1.8 | – | –
x1 = 0.021 | 1018.65 ± 3.2 | 1016.83 ± 3.2 | 1548 ± 1.8 | 1556.4 ± 1.8 | – | –
x1 = 0.0302 | 1027.91 ± 3.2 | 1026.01 ± 3.2 | 1564.3 ± 1.8 | 1571.8 ± 1.8 | – | –
x1 = 0.0398 | 1037.12 ± 3.2 | 1035.13 ± 3.2 | 1580.8 ± 1.8 | 1587.3 ± 1.8 | – | –
x1 = 0.0546 | 1050.34 ± 3.3 | 1048.23 ± 3.3 | 1604.4 ± 1.8 | 1609.6 ± 1.8 | – | –
x1 = 0.0651 | 1058.89 ± 3.3 | 1056.7 ± 3.3 | 1620.4 ± 1.8 | 1624.6 ± 1.8 | – | –
x1 = 0.0721 | 1064.55 ± 3.3 | 1062.31 ± 3.3 | 1630.6 ± 1.8 | 1634.3 ± 1.8 | – | –
x1 = 0.0793 | 1069.8 ± 3.3 | 1067.51 ± 3.3 | 1640.5 ± 1.8 | 1643.6 ± 1.8 | – | –
x1 = 0.0898 | 1077.46 ± 3.3 | 1075.13 ± 3.3 | 1654.6 ± 1.8 | 1656.9 ± 1.8 | – | –
x1 = 0.0998 | 1084.34 ± 3.3 | 1081.93 ± 3.3 | 1667.4 ± 1.8 | 1668.9 ± 1.8 | 2.405 ± 0.34 | 2.102 ± 0.29
x1 = 0.1198 | 1096.94 ± 3.3 | 1094.42 ± 3.3 | 1690.6 ± 1.8 | 1690.8 ± 1.8 | – | –
x1 = 0.1549 | 1116.57 ± 3.3 | 1113.89 ± 3.3 | 1726.2 ± 1.8 | 1724.3 ± 1.8 | 3.932 ± 0.55 | 3.385 ± 0.47
x1 = 0.2024 | 1138.25 ± 3.3 | 1135.43 ± 3.3 | 1764 ± 1.8 | 1760.1 ± 1.8 | – | –
x1 = 0.2534 | 1157.11 ± 3.3 | 1154.17 ± 3.3 | 1794.9 ± 1.8 | 1789.3 ± 1.8 | 8.807 ± 1.2 | 7.44 ± 1
x1 = 0.2959 | 1170.15 ± 3.3 | 1167.15 ± 3.3 | 1814.7 ± 1.8 | 1808.1 ± 1.8 | 12.34 ± 1.7 | 10.25 ± 1.4
x1 = 0.3504 | 1184.07 ± 3.3 | 1181.02 ± 3.3 | 1834.3 ± 1.8 | 1826.7 ± 1.8 | 18.45 ± 2.6 | 14.92 ± 2.1
x1 = 0.4006 | 1194.81 ± 3.3 | 1191.72 ± 3.3 | 1848 ± 1.8 | 1839.7 ± 1.8 | 26.45 ± 3.7 | 20.87 ± 2.9
x1 = 0.4477 | 1203.34 ± 3.3 | 1200.23 ± 3.3 | 1857.9 ± 1.8 | 1849 ± 1.8 | 36.01 ± 5 | 27.91 ± 3.9
x1 = 0.4983 | 1211.29 ± 3.3 | 1208.14 ± 3.3 | 1866.4 ± 1.8 | 1857.6 ± 1.8 | 49.18 ± 6.9 | 37.43 ± 5.2
x1 = 0.5471 | 1218.12 ± 3.3 | 1214.97 ± 3.3 | 1872.9 ± 1.8 | 1863.4 ± 1.8 | 65.39 ± 9.2 | 49.12 ± 6.9
x1 = 0.6046 | 1224.8 ± 3.3 | 1221.64 ± 3.3 | 1878.8 ± 1.8 | 1869 ± 1.8 | 91.76 ± 13 | 65.97 ± 9.2
x1 = 0.6469 | 1229.27 ± 3.3 | 1226.11 ± 3.3 | 1882.3 ± 1.8 | 1872.2 ± 1.8 | 116.57 ± 16 | 85.3 ± 12
x1 = 0.7006 | 1234.31 ± 3.4 | 1231.15 ± 3.3 | 1886 ± 1.8 | 1875.7 ± 1.8 | 154.03 ± 22 | 111.01 ± 16
x1 = 0.7465 | 1238.26 ± 3.4 | 1235.11 ± 3.4 | 1888.8 ± 1.8 | 1878.4 ± 1.8 | 196.75 ± 28 | 140.28 ± 20
x1 = 0.7942 | 1241.97 ± 3.4 | 1238.83 ± 3.4 | 1891.5 ± 1.8 | 1880.9 ± 1.8 | 245.24 ± 35 | 172.49 ± 24
x1 = 0.8497 | 1245.72 ± 3.4 | 1242.6 ± 3.4 | 1894.1 ± 1.8 | 1883.6 ± 1.8 | 314.35 ± 45 | 218.85 ± 31
x1 = 0.8993 | 1248.75 ± 3.4 | 1245.64 ± 3.4 | 1895.6 ± 1.8 | 1884.6 ± 1.8 | 391.29 ± 56 | 270.27 ± 38
x1 = 0.9196 | 1250 ± 3.4 | 1246.89 ± 3.4 | 1896.7 ± 1.8 | 1885.5 ± 1.8 | – | –
x1 = 0.9322 | 1250.72 ± 3.4 | 1247.62 ± 3.4 | 1896.9 ± 1.8 | 1885.8 ± 1.8 | – | –
x1 = 0.9462 | 1251.51 ± 3.4 | 1248.4 ± 3.4 | 1897.2 ± 1.9 | 1886.3 ± 1.9 | 477.66 ± 68 | 326.69 ± 46
x1 = 0.9562 | 1252.03 ± 3.4 | 1248.93 ± 3.4 | 1897.8 ± 1.9 | 1886.6 ± 1.9 | – | –
x1 = 0.9855 | 1253.69 ± 3.4 | 1250.59 ± 3.4 | 1898.9 ± 1.9 | 1887.5 ± 1.9 | – | –
x1 = 1 | 1254.48 ± 3 | 1251.38 ± 3 | 1899.6 ± 1.9 | 1888.1 ± 1.9 | 593.09 ± 85 | 401.76 ± 57

Reference: the NIST ThermoML archive (doi:10.1016/j.jct.2018.02.022)
